Test in all cases: NCI tumour cell line growth inhibition, 48 h
Assay [1] concerns LXFL 529 NSCLC.
Assay [2] concerns DLD-1 colon.
In assay [3] the test system is HOP-18 NSCLC.
The test system of assay [4] is DMS 273 small cell lung.
The subject of assay [5] is DMS 114 small cell lung.
Assay [6] deals with XF 498 CNS.
The test system of assay [7] is SN12K1 renal.
Assay [8] deals with M19-MEL melanoma.
For assay [9], the system named is P388 leukemia.
In assay [10] the test system is P388/ADR leukemia.

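Method: 48-hour compound exposure of cells in 96-well plates, five concentrations, linear interpolation of endpoints. TGI: total growth inhibition.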

The values below come from PubChem BioAssay (NCI).

As for `c1c(N2CCOCC2)ssc1=[N+]1CCOCC1`, the TGI in [1], in assay [2], in [3], in assay [4] and in [5] was more than 100000 nM in each case.
On to `CCCO/N=[N+](\[O-])N(CC)CC`, for which the TGI in [1], in assay [6] and in assay [4] was more than 100000 nM in each case.
In the case of `CC(=O)OC1CC2(O)C(CCC3(C)C(c4ccc(=O)oc4)CCC32O)C2(C)C1=CC(O)C1OC12` (configuration not stated), the TGI in assay [7] amounted to 139 nM; in assay [2] it was 179 nM; in assay [3], 385 nM; in [6] it was 201 nM; in [8], 245 nM; in assay [9], 154000 nM. Also, the values for the TGI in assay [4], in assay [10] and in assay [5] were 135 nM, 250000 nM and 33.5 nM, respectively.
